Measurements as given in patent publication US20120214843A1, “Combination Treatment of Hydroxpyridonate Actinide/Lanthanide Decorporation Agents” (priority 2009, published 2012).

Columns and labels:
[1] = Actinide decorporation in mice after iv 238Pu(IV) injection, single or combined HOPO ligands; type: in vivo, Swiss-Weber mice; settings: ligand injected ip at 24 h
Description: (§1) Ligand Combination. […] Tetradentate 5-LIO(Me-3,2-HOPO), HOPO (2), is structurally suitable for chelating Np(V) and U(VI). Treatment is likely to be delayed in human contamination with dispersed radionuclides. Those conditions were approached, using mice, by ligand injection ip at 24 h or oral administration at 1 or 24 h after an iv actinide injection. Dosages of (1) and (2) were, respectively, 30 and 100 μmolkg^−1 ip and 100 and 200 μmolkg^−1 oral. Because mixtures of radionuclides may be released, (1) and (2) were combined to take advantage of their differing efficacies for the actinides. Dosages of combined (1) and (2) were, respectively, 30 plus […] injected ip and […] oral. Actinides in all mouse tissues and excreta were determined using published methods.
(§2) Tetradentate 5-LIO(Me-3,2-HOPO), HOPO (2), is structurally suitable for chelating Np(V) and U(VI). Treatment is likely to be delayed in human contamination with dispersed radionuclides. Those conditions were approached, using mice, by ligand injection ip at 24 h or oral administration at 1 or 24 h after an iv actinide injection. Dosages of (1) and (2) were, respectively, 30 and 100 μmolkg-1 ip and 100 and 200 μmolkg-1 oral. […] Actinides in all mouse tissues and excreta were determined using published methods. […]

[2] = Actinide decorporation in mice after iv 241Am(III) injection, single or combined HOPO ligands; type: in vivo, Swiss-Weber mice; settings: ligand injected ip at 24 h
Description: as §1, §2

[3] = Actinide decorporation in mice, all actinides and protocols, comparison of treatments; set-up: species or system Swiss-Weber mice; settings: mouse
Description: as §1, §2

[4] = Clearing Pu from mouse tissues relative to CaNa3-DTPA; type: in vivo
Excerpt: (§3) In vivo Efficacy. […] For example, the efficiency of 3,4,3-LI-1,2-HOPO for clearing circulating Pu from mouse tissues ranges from 100 times (skeleton) to 240 times (soft tissues) that of CaNa3-DTPA in five different protocols. In addition, the optimal activity dose of 3,4,3-LI-1,2-HOPO for removing newly deposited Pu from mice is 2.5% of the dose of CaNa3-DTPA used clinically. The tetradentate 5-LIO-Me-3,2-HOPO has potential therapeutic value for Pu, U, Am and Np, and its efficiency for clearing circulating Pu from mouse tissues ranges from 5 times (skeleton) to 15 times (liver) that of CaNa3-DTPA.

[5] = Oral removal of injected Pu; type: in vivo; settings: administered orally to mice or beagles after a Pu injection
Excerpt: (§4) Oral Activity. Both compounds are orally active actinide chelators: when administered orally to mice or beagles after a Pu injection, 3,4,3-LI-1,2-HOPO and 5-LIO-Me-3,2-HOPO can remove up to 80% and 60%, respectively, of the injected Pu.

[6] = Pharmacokinetic studies using 14C-labeled ligands; type: in vivo
[7] = In vivo actinide chelation and removal compared with CaNa3-DTPA; set-up: species or system mice
Excerpt: as §3, §4

[8] = Actinide decorporation in mice after iv 237Np(V) injection, single or combined HOPO ligands; type: in vivo, Swiss-Weber mice
Description: as §1
(§5) Tetradentate 5-LIO(Me-3,2-HOPO), HOPO (2), is structurally suitable for chelating Np(V) and U(VI). Treatment is likely to be delayed in human contamination with dispersed radionuclides. Those conditions were approached, using mice, by ligand injection ip at 24 h or oral administration at 1 or 24 h after an iv actinide injection. Dosages of (1) and (2) were, respectively, 30 and 100 μmolkg-1 ip and 100 and 200 μmolkg-1 oral. Because mixtures of radionuclides may be released, (1) and (2) were combined to take advantage of their differing efficacies for the actinides. Dosages of combined (1) and (2) were, respectively, 30 plus 100 μmolkg-1 injected ip and 100 and 200 μmolkg-1 oral. Actinides in all mouse tissues and excreta were determined using published methods.
(§6) Objective: to assay the efficacy of the two ligands at promoting radionuclide excretion with prompt or delayed administration, as single or combined treatments, and to identify target organs and excretion pathways. The test system used Swiss-Weber mice (˜35 g). Actinide loading involves intravenous injection of An-citrate complex at t0. Samples of later taken of the whole skeleton, liver, kidneys, bulk soft tissues, urine, and feces (Σ=100%). (See Table 1.)

[9] = Actinide decorporation in mice after iv 233U(VI) injection, single or combined HOPO ligands; type: in vivo, Swiss-Weber mice
Description: as §1, §5, §6

O=C(NCCCN(CCCCN(CCCNC(=O)c1cccc(=O)n1O)C(=O)c1cccc(=O)n1O)C(=O)c1cccc(=O)n1O)c1cccc(=O)n1O [3,4,3-LI(1,2-HOPO)]
reduction of liver and skeleton actinide, Pu(IV) [1]: appreciable and significant reductions | reduction of liver and skeleton actinide, Am(III) [2]: appreciable and significant reductions | in vivo chelation of Pu(IV) and Am(III) [3]: highly effective | optimal activity dose for removing newly deposited Pu from mice ([4]; mice): 2.5 % of the dose of CaNa3-DTPA used clinically | efficiency for clearing circulating Pu from mouse tissues, skeleton [4]: 100 times that of CaNa3-DTPA | efficiency for clearing circulating Pu from mouse tissues, soft tissues ([4]; soft tissues, five different protocols): 240 times that of CaNa3-DTPA | injected Pu removed [5]: up to 80% | stability to metabolic degradation [6]: stable to metabolic degradation | removing newly deposited Pu, Np, Am and U from mice, compared with CaNa3-DTPA [7]: significantly more effective | Pu, Np, Th, Am and Cf chelation in vivo ([7]; mouse, in vivo): highly effective

Cn1ccc(C(=O)NCCOCCNC(=O)c2ccn(C)c(=O)c2O)c(O)c1=O [5-LIO(Me-3,2-HOPO)]
Np(V) excretion ([8]; ligand given orally at 1 h): about 115 % control | liver Np(V) ([8]; ligand given orally at 1 h): 25 % control | Np(V) excretion ([8]; ligand injected ip at 24 h): about 3 times control | liver Np(V) ([8]; ligand injected ip at 24 h): 30 % control | liver Np(V) ([8]; oral treatment at 24 h): 50 % control | U(VI) excretion ([9]; ligand given orally at 1 h): about 115 % control | kidney U(VI) ([9]; ligand given orally at 1 h): 50 % control | U(VI) excretion ([9]; ligand injected ip at 24 h): about 3 times control | kidney U(VI) ([9]; ligand injected ip at 24 h): 45 % control | kidney U(VI) ([9]; oral treatment at 24 h): 70 % control | efficiency for clearing circulating Pu from mouse tissues, liver ([4]; liver): 15 times that of CaNa3-DTPA | efficiency for clearing circulating Pu from mouse tissues, skeleton [4]: 5 times that of CaNa3-DTPA | injected Pu removed [5]: ≤ 60% | stability to metabolic degradation [6]: stable to metabolic degradation | removing newly deposited Pu, Np, Am and U from mice, compared with CaNa3-DTPA [7]: significantly more effective
